Test results as given in paper PMC7136958, “Targeting the pregnane X receptor using microbial metabolite mimicry” (EMBO Molecular Medicine, 2020).
“And” between values parts separate entries of the source, which are not always exact repeats. Identical values can stand only once.

Columns and labels:
[1] = test system: pxr -/- mice; assay: DSS-induced acute colitis in pxr -/- mice; format: in vivo, mouse
Method: For these studies, 7‐ to 8‐week‐old female (DeVoss & Diehl, 2014) hPXR (mice expressing the human PXR gene) and pxr ^−/− mice (C57BL/6 background) were bred and each genotype was separated into two treatment groups using a random allocation method via coin toss—(i) n = 3 control (0.8% DMSO in 100 μl drinking water) and (ii) n = 3 FKK6 (200 μM (0.4 mg/kg/day) in 0.8% DMSO in 100 μl drinking water) administered once per day via oral gavage, and via intrarectal gavage for a total of 10 consecutive days The dose was chosen based on the extrapolation of the total dose delivered over 10 days to mice (~ 4 mg/kg), which is equivalent to that delivered to mice for determining target gene expression over 3–5 doses (3–5 mg/kg). […] Fecal pellets were collected prior to the initiation of the treatment protocol. All mice were starved overnight (12 h) to allow for smooth intrarectal delivery; however, the mice were allowed to feed ad libitum during the day. After 10 days, the mice were sacrificed and organs/tissues/feces harvested for further study. Prior to necropsy, mice were administered FITC‐dextran, and mouse serum was collected for the FITC‐dextran assay as previously described (Vetizou et al, 2015). The experimenter was not blinded to treatment allocation; however, the pathologist (KS) evaluating histologic scores was blinded to treatment allocation. […]

[2] = molecular target: T1, HDAC1 (Homo sapiens, UniProt Q13547); assay: HDAC fluorescent activity assay; format: biochemical; settings: substrate Peptide (Ac), replicates
T1 construct: purchased Reaction Biology Corp
T1 sequence (Q13547 whole entry): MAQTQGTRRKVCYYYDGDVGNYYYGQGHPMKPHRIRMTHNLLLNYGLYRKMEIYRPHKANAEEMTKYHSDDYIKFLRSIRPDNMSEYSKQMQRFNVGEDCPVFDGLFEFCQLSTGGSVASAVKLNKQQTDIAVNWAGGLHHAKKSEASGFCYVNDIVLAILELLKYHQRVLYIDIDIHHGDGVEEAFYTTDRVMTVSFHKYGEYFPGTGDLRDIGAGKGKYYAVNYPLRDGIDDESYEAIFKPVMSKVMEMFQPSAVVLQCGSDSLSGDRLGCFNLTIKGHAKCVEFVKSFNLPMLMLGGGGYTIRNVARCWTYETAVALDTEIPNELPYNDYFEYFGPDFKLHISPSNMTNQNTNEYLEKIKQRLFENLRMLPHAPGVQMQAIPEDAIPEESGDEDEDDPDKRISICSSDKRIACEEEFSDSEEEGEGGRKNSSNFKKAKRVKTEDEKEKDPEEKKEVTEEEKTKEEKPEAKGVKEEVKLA
Method: (§1) The following […] assays (HDAC, SIRT1, PRMT1, PARP1, p300, pCAF) were performed by Reaction Biology Corp. FKK6 was screened at a single concentration of 10 μM in duplicate in two separate experiments. The appropriate controls for the individual assays are published. […]
(§2) The Histone Deacetylase (HDAC) fluorescent activity assay (HDAC1-3) is based on the using 2X purified human enzyme mixed with the reaction buffer (50 mM Tris-HCl pH 8, 137 mM NaCl, 2.7 mM KCl, and 1 mM MgCl2, 1 mg/mL fresh BSA and 1% fresh DMSO) and then compounds (in 100% DMSO) are titrated in using Acoustic Technology.
(§3) The 2X HDAC substrate is a fluorogenic acetylated peptide from p53 (residues 379 - 38 2 RHKK(Ac)AMC) which is mixed in with the enzyme-compound complex and incubated for 1-2 h at 30 °C. In the development step, a proprietary developer with trichostatin A (or TMP269) is added to stop the reaction and to generate fluorescent color which is read using an EnVision Multilabel Plate Reader (Perkin Elmer) (Ex 360 nm/ Em 460 nm). For all enzyme activity assays, the percentage of enzyme activity (relative to DMSO controls) and IC50 values were calculated using GraphPad Prism 4 program (sigmoidal dose response equations). […]
(§4) SMCT solution (0.32 M sucrose, 10 mM Tris -HCl, 1 mM MgCl2, 1 mM CaCl2, 0.1 mM PMSF and freshly prepared 1 mM DTT at pH 7.4) once in the presence of 0.25% Triton X-100 and once in its

[3] = molecular target: T2, HDAC2 (Homo sapiens, UniProt Q92769); assay: HDAC fluorescent activity assay; format: biochemical; settings: substrate Peptide (Ac), replicates
T2 construct: purchased Reaction Biology Corp
T2 sequence (Q92769 whole entry): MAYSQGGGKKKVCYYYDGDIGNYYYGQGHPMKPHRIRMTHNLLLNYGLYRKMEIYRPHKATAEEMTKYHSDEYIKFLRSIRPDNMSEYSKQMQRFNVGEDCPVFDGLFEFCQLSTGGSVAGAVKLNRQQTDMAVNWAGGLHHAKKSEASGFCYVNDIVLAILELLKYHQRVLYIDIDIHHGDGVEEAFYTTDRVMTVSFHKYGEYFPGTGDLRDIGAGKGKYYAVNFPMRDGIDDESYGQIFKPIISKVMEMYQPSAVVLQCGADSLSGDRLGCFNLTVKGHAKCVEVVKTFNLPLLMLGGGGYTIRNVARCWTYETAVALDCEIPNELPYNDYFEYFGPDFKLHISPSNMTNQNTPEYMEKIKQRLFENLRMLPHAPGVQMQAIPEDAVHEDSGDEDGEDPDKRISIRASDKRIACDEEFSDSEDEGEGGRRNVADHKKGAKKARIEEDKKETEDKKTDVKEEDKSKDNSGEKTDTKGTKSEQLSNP
Method: as §1, §2, §3, §4

[4] = molecular target: T3, HDAC3 (Homo sapiens, UniProt O15379); assay: HDAC fluorescent activity assay; format: biochemical; settings: substrate Peptide (Ac), replicates
T3 construct: purchased Reaction Biology Corp
T3 sequence (O15379 whole entry): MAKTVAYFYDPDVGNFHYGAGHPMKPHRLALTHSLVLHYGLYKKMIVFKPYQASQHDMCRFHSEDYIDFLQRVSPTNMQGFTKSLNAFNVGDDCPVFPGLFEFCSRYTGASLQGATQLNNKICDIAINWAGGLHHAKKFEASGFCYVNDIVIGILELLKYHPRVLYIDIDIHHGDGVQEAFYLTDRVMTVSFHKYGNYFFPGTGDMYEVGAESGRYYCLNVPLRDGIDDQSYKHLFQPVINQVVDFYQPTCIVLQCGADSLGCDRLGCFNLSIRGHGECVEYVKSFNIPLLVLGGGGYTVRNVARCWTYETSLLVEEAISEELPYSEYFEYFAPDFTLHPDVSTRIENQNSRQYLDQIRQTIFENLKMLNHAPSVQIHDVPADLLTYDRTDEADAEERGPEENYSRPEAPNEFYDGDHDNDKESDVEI
T3 sequence (Q9Y618 395-489 partner limits assumed): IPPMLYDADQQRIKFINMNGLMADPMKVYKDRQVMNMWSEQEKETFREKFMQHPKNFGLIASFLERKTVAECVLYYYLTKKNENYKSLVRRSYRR
Method: as §1, §2, §3, §4

[5] = molecular target: T4, SIRT1 (Homo sapiens, UniProt Q96EB6); assay: Sirtuin (SIRT1) assay; format: biochemical; settings: substrate Acetylated peptide, replicates
T4 construct: full -length N-terminal His-tag protein (MW 83.2 kDa); His-tag (N); purchased Reaction Biology Corp; host or cells: E. coli
T4 sequence (Q96EB6 whole entry): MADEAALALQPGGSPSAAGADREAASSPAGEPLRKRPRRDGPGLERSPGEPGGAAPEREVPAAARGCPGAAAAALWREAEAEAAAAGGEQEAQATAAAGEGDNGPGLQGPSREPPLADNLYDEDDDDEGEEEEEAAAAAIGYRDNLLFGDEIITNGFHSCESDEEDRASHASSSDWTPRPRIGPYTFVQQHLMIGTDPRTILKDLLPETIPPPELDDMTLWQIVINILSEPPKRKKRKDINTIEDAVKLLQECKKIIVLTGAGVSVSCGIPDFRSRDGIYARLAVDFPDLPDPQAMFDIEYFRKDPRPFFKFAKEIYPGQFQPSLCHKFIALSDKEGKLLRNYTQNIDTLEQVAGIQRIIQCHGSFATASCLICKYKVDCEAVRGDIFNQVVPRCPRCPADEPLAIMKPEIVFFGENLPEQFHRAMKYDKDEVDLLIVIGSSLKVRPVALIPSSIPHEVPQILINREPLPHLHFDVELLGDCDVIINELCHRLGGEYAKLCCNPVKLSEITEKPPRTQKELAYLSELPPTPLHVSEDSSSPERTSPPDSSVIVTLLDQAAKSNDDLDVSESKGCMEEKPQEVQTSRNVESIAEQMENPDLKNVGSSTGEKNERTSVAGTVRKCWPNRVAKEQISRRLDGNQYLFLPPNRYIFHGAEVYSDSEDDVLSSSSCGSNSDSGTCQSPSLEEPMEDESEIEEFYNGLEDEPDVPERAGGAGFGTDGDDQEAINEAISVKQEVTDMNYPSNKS
Method: Software Tool and reprinted with permission from KINOME scan®, a division of DiscoveRx […]
The following […] assays (HDAC, SIRT1, PRMT1, PARP1, p300, pCAF) were performed by Reaction Biology Corp. FKK6 was screened at a single concentration of 10 μM in duplicate in two separate experiments. The appropriate controls for the individual assays are published. The overall […]
enzyme activity in the assay is reported as a % activity in DMSO control wells. Control IC50 […]
Briefly, for the Sirtuin (SIRT1) assay, human SIRT1 (GenBank
Accession No. NM012238) full -length N-terminal His-tag protein (MW 83.2 kDa) was purified after expression in E. coli. The reaction buffer was freshly prepared and constituted 50 mM Tris-HC l ( p H 8), 137 mM NaCl, 2.7 mM KCl, 1 mM MgCl2, and just before use, 1 mg/mL BSA and 1% DMSO was added. The substrate was a fluorogenic acetylated peptide of p53 residues 379-382 (RHKK (Ac)- AM C) . In th e multi-well format, the 2X enzyme was mixed with the reaction buffer followed by compound (in 100% DMSO) titration via Acoustic technology (Echo550; LabCyte Inc, Sunnyvale, CA) in the nanoliter range. The mixture was spun down and 2X substrate (including NAD+) was added to initiate the reaction at 30° C at 2h under seal. […] Fluorescence kinetic measurements were conducted for 1.5 h in 15 min intervals using Envision (Ex 360nm/Em 460nm). […]

[6] = read-out: % Enzyme Activity to DMSO controls

Compound: C#CCC(O)(c1ccncc1)c1cc2ccccc2n1S(=O)(=O)c1ccccc1 (stereo not shown) [FKK6]
- weight loss, colon length, inflammation score, lipocalin 2, FITC-dextran levels ([1]; FKK6 200 μM, 10 days): did not alter
- % weight loss from baseline (day 10) ([1]; pxr -/- mice, DSS colitis, Fig 6a, individual values): 24% and 25% and 22%
- % Enzyme Activity to DMSO controls ([2]; 10 μM): 101.46% and 89.76% and 86.7%
- remaining activity at 10 µM [2, 6]: 106%
- % Enzyme Activity to DMSO controls ([3]; 10 μM): 78.19% and 83.24% and 88.71%
- remaining activity at 10 µM [3, 6]: 86.3%
- % Enzyme Activity to DMSO controls ([4]; 10 μM): 116.9% and 114.05% and 107.82%
- remaining activity at 10 µM [4, 6]: 122%
- % Enzyme Activity to DMSO controls ([5]; 10 μM): 100.03% and 99.84% and 94.47%
- remaining activity at 10 µM [5, 6]: 100%
